In the supplement of paper PMC10307832:

Tests used:
Assay in all cases: relative viability (nuclei count vs DMSO), 5 days (fraction); higher = more cells survive
201T = system: 201T
Procedure, shortened: (§1)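 One day after seeding in 1536-well plates, lung cancer cell lines were dosed by pin tool. Dosing was either single-drug or a fixed anchor-drug dose plus five library-drug doses (not always all listed) in √10 steps. After 5 days, nuclei were stained in one fix-and-stain step and counted on 4× images, and relative viability is the nuclei count of treated wells over that of vehicle wells, given as the median of duplicate plates.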

ABC-1 = system: ABC-1
Procedure, shortened: as §1

BEN = system: BEN
Procedure, shortened: as §1

CAL-12T = system: CAL-12T
Procedure, shortened: as §1

COR-L 105 = system: COR-L 105
Procedure, shortened: as §1

COR-L23 = system: COR-L23
Procedure, shortened: as §1

EKVX = system: EKVX
Procedure, shortened: as §1

HARA = system: HARA
Procedure, shortened: as §1

HCC-366 = system: HCC-366
Procedure, shortened: as §1

LK-2 = system: LK-2
Procedure, shortened: as §1

LU99A = system: LU99A
Procedure, shortened: as §1

NCI-H1437 = system: NCI-H1437
Procedure, shortened: as §1

NCI-H1650 = system: NCI-H1650
Procedure, shortened: as §1

NCI-H1666 = system: NCI-H1666
Procedure, shortened: as §1

NCI-H2009 = system: NCI-H2009
Procedure, shortened: as §1

NCI-H2170 = system: NCI-H2170
Procedure, shortened: as §1

NCI-H3122 = system: NCI-H3122
Procedure, shortened: as §1

NCI-H441 = system: NCI-H441
Procedure, shortened: as §1

NCI-H661 = system: NCI-H661
Procedure, shortened: as §1

NCI-H727 = system: NCI-H727
Procedure, shortened: as §1

NCI-H838 = system: NCI-H838
Procedure, shortened: as §1

PC-14 = system: PC-14
Procedure, shortened: as §1

SW 900 = system: SW 900
Procedure, shortened: as §1

NC(=O)Nc1cc(-c2cccc(F)c2)sc1C(=O)N[C@H]1CCCNC1 [AZD7762] + O=C(CCCCCCC(=O)Nc1ccccc1)NO [Vorinostat] (partner 1 µM)
relative viability (201T; first compound 0.01 µM): 0.996
relative viability (201T; first compound 0.03162 µM): 1.03
relative viability (201T; first compound 0.1 µM): 1.03
relative viability (201T; first compound 0.3162 µM): 1.08
relative viability (201T; first compound 1 µM): 1.01
relative viability (ABC-1; first compound 0.01 µM): 0.847
relative viability (ABC-1; first compound 0.03162 µM): 1.47
relative viability (ABC-1; first compound 0.1 µM): 1.04
relative viability (ABC-1; first compound 0.3162 µM): 0.976
relative viability (ABC-1; first compound 1 µM): 0.314
relative viability (BEN; first compound 0.01 µM): 0.639
relative viability (BEN; first compound 0.03162 µM): 0.558
relative viability (BEN; first compound 0.1 µM): 0.633
relative viability (BEN; first compound 0.3162 µM): 0.619
relative viability (BEN; first compound 1 µM): 0.543
relative viability (CAL-12T; first compound 0.01 µM): 0.861
relative viability (CAL-12T; first compound 0.03162 µM): 0.693
relative viability (CAL-12T; first compound 0.1 µM): 0.9
relative viability (CAL-12T; first compound 0.3162 µM): 0.276
relative viability (CAL-12T; first compound 1 µM): 0.167
relative viability (COR-L 105; first compound 0.01 µM): 0.989
relative viability (COR-L 105; first compound 0.03162 µM): 0.823
relative viability (COR-L 105; first compound 0.1 µM): 0.808
relative viability (COR-L 105; first compound 0.3162 µM): 0.609
relative viability (COR-L 105; first compound 1 µM): 0.444
relative viability (COR-L23; first compound 0.01 µM): 0.562
relative viability (COR-L23; first compound 0.03162 µM): 0.423
relative viability (COR-L23; first compound 0.1 µM): 0.246
relative viability (COR-L23; first compound 0.3162 µM): 0.129
relative viability (COR-L23; first compound 1 µM): 0.0864
relative viability (EKVX; first compound 0.01 µM): 0.78
relative viability (EKVX; first compound 0.03162 µM): 0.758
relative viability (EKVX; first compound 0.1 µM): 0.707
relative viability (EKVX; first compound 0.3162 µM): 0.794
relative viability (EKVX; first compound 1 µM): 0.461
relative viability (HARA; first compound 0.01 µM): 0.454
relative viability (HARA; first compound 0.03162 µM): 0.483
relative viability (HARA; first compound 0.1 µM): 0.509
relative viability (HARA; first compound 0.3162 µM): 0.503
relative viability (HARA; first compound 1 µM): 0.451
relative viability (HCC-366; first compound 0.01 µM): 0.455
relative viability (HCC-366; first compound 0.03162 µM): 0.301
relative viability (HCC-366; first compound 0.1 µM): 0.39
relative viability (HCC-366; first compound 0.3162 µM): 0.188
relative viability (HCC-366; first compound 1 µM): 0.104
relative viability (LK-2; first compound 0.01 µM): 0.307
relative viability (LK-2; first compound 0.03162 µM): 0.316
relative viability (LK-2; first compound 0.1 µM): 0.272
relative viability (LK-2; first compound 0.3162 µM): 0.468
relative viability (LK-2; first compound 1 µM): 0.283
relative viability (LU99A; first compound 0.01 µM): 0.469
relative viability (LU99A; first compound 0.03162 µM): 0.536
relative viability (LU99A; first compound 0.1 µM): 0.561
relative viability (LU99A; first compound 0.3162 µM): 0.345
relative viability (LU99A; first compound 1 µM): 0.171
relative viability (NCI-H1437; first compound 0.01 µM): 0.964
relative viability (NCI-H1437; first compound 0.03162 µM): 0.85
relative viability (NCI-H1437; first compound 0.1 µM): 0.88
relative viability (NCI-H1437; first compound 0.3162 µM): 0.639
relative viability (NCI-H1437; first compound 1 µM): 0.49
relative viability (NCI-H1650; first compound 0.01 µM): 0.622
relative viability (NCI-H1650; first compound 0.03162 µM): 0.719
relative viability (NCI-H1650; first compound 0.1 µM): 0.651
relative viability (NCI-H1650; first compound 0.3162 µM): 0.392
relative viability (NCI-H1650; first compound 1 µM): 0.157
relative viability (NCI-H1666; first compound 0.01 µM): 1.16
relative viability (NCI-H1666; first compound 0.03162 µM): 1.17
relative viability (NCI-H1666; first compound 0.1 µM): 1.22
relative viability (NCI-H1666; first compound 0.3162 µM): 1.21
relative viability (NCI-H1666; first compound 1 µM): 1.07
relative viability (NCI-H2009; first compound 0.01 µM): 0.794
relative viability (NCI-H2009; first compound 0.03162 µM): 0.733
relative viability (NCI-H2009; first compound 0.1 µM): 0.693
relative viability (NCI-H2009; first compound 0.3162 µM): 0.688
relative viability (NCI-H2009; first compound 1 µM): 0.625
relative viability (NCI-H2170; first compound 0.01 µM): 0.81
relative viability (NCI-H2170; first compound 0.03162 µM): 0.834
relative viability (NCI-H2170; first compound 0.1 µM): 0.766
relative viability (NCI-H2170; first compound 0.3162 µM): 0.772
relative viability (NCI-H2170; first compound 1 µM): 0.824
relative viability (NCI-H3122; first compound 0.01 µM): 0.936
relative viability (NCI-H3122; first compound 0.03162 µM): 0.927
relative viability (NCI-H3122; first compound 0.1 µM): 1.06
relative viability (NCI-H3122; first compound 0.3162 µM): 0.925
relative viability (NCI-H3122; first compound 1 µM): 0.973
relative viability (NCI-H441; first compound 0.01 µM): 1.09
relative viability (NCI-H441; first compound 0.03162 µM): 0.804
relative viability (NCI-H441; first compound 0.1 µM): 1.01
relative viability (NCI-H441; first compound 0.3162 µM): 0.864
relative viability (NCI-H441; first compound 1 µM): 0.312
relative viability (NCI-H661; first compound 0.01 µM): 0.929
relative viability (NCI-H661; first compound 0.03162 µM): 0.867
relative viability (NCI-H661; first compound 0.1 µM): 0.98
relative viability (NCI-H661; first compound 0.3162 µM): 0.604
relative viability (NCI-H661; first compound 1 µM): 0.341
relative viability (NCI-H727; first compound 0.01 µM): 1.18
relative viability (NCI-H727; first compound 0.03162 µM): 1.26
relative viability (NCI-H727; first compound 0.1 µM): 1.2
relative viability (NCI-H727; first compound 0.3162 µM): 1.24
relative viability (NCI-H727; first compound 1 µM): 0.868
relative viability (NCI-H838; first compound 0.01 µM): 0.731
relative viability (NCI-H838; first compound 0.03162 µM): 0.726
relative viability (NCI-H838; first compound 0.1 µM): 0.76
relative viability (NCI-H838; first compound 0.3162 µM): 0.745
relative viability (NCI-H838; first compound 1 µM): 0.272
relative viability (PC-14; first compound 0.01 µM): 0.761
relative viability (PC-14; first compound 0.03162 µM): 0.591
relative viability (PC-14; first compound 0.1 µM): 0.57
relative viability (PC-14; first compound 0.3162 µM): 0.292
relative viability (PC-14; first compound 1 µM): 0.0419
relative viability (SW 900; first compound 0.01 µM): 0.643
relative viability (SW 900; first compound 0.03162 µM): 0.445
relative viability (SW 900; first compound 0.1 µM): 0.545
relative viability (SW 900; first compound 0.3162 µM): 0.262
relative viability (SW 900; first compound 1 µM): 0.275
